From EP2605769B1, “BENZOQUINONE DERIVATIVES FOR THE TREATMENT OF MITCHONDRIAL EYE DISEASES” (Santhera Pharmaceuticals (Schweiz) AG, priority 2010, dated 2012)

Key:
[1] = system: RGC-5 cells; experiment: Cellular viability of RGC-like cells challenged with rotenone (cellular ATP content); assay type: cell-based; conditions: 1 day-preincubation, 100 µM
Source text: Mitochondrial impairment directly influences cellular survival. Especially cells and tissues that display high level of energy consumption, such as neurons are especially vulnerable. Consequently, these cells and tissues are likely to be the most responsive to a strategy that targets mitochondrial function. We addressed this possibility by assessing the viability of the retinal ganglion cell line RGC-5, challenged with the mitochondrial complex I inhibitor rotenone, in the absence or presence of compounds.
Experimental procedure: RGC-5 cells were cultured under ambient conditions (37 °C, 5% CO2, 90% humidity) in DMEM (1g/l glucose; 10% fetal bovine serum (FBS), Penicillin-Streptomycin-Glutamine (PSG)). RGC-5 cells will be seeded in DMEM (1g/l glucose; 2% FBS) into BD Falcon™ cell culture plates. Before rotenone- induced complex I inhibition, the cells were pre-treated with Compound IA or vehicle. For Compound IA co-treatment with rotenone, new compound was added together with rotenone-containing cell culture media. After the rotenone exposure, the media was exchanged and replaced by Hanks' BSS for the 1 day post-incubation. The post-treatment media contained Compound IA or vehicle only. As measure of cell viability, cellular ATP content was analyzed using luminescence from ATP-dependent enzymatic oxidation of luciferin by luciferase. RGC-5 cells were be washed with PBS and lysed in lysis buffer (4 mM EDTA, 0.2% Triton X-100) at room temperature. In 96-well plates, ATP measurement buffer (25 mM HEPES pH 7.25, 300 µM D-luciferin, 5 µg/ml firefly luciferase, 75 µM DTT, 6.25 mM MgCl2, 625 µM EDTA and 1 mg/ml BSA) was combined with lysate to start the reaction. Luminescence was quantified immediately using a multimode plate reader (Tecan M1000, Tecan iControl 1.6 software; Tecan Austria GmbH, Grödig, Austria). Effects on cell viability were defined as the percentage of compound-mediated change in cell viability relative to rotenone-induced reduction in cell viability. Data are presented as mean ± SEM. Paired Student's t-test was used to compare non-normalized data. Statistical significance was set at p≤0.05(*), p≤0.01(**) and p≤0.001(***).

[2] = system: Primary human fibroblasts C4 (GM04545, Coriell); experiment: Lipid peroxidation assay (BODIPY 581/591-C11); assay type: cell-based; conditions: 10 µM test compound, 72 hours
Source text: Lipid peroxidation is a well defined mechanism of cellular damage in both animals and plants that occurs during aging and in some disease states. This process proceeds by a free radical chain reaction mechanism. […] If not terminated fast enough, lipid peroxidation damages cellular membranes, affect membrane fluidity and also mitochondrial function. In addition, end products of lipid peroxidation may be mutagenic and carcinogenic. For instance, the reactive end product of lipid peroxidation, malondialdehyde, directly causes DNA damage. Experimental Procedure: […] BODIPY 581/591-C11 can be used to measure antioxidant activity in lipid environments by exploiting its loss of fluorescence upon interaction with peroxyl radicals. […] After that, 0.1 ml freshly prepared dye solution (HBSS, containing BODIPY dye 1:1000 from stock solution) was added and cells were returned to the incubator for 30 min. After 2 brief washes with 0.1 ml warmed PBS fluorescence was measured in 50 µl PBS. Fluorescence for 4 individual areas per well were individually quantified at two wavelengths (Ex1: 490, Em1: 600; Ex2: 490, Em2: 530, bandwith 10nm, 50 flashes, 400Hz frequency, 20 µs integration time).

Structure (SMILES) | cell viability, compound-mediated change relative to rotenone-induced reduction, mean (Fig. 2) [1] | cell viability, compound-mediated change relative to rotenone-induced reduction, mean (Fig. 2) ([1]; listed as PP) | cell viability, compound-mediated change relative to rotenone-induced reduction, mean (Fig. 2) ([1]; listed as propentophilline) | Lipid peroxidation [2]
CCCn1cnc2c1c(=O)n(CCCCC(C)=O)c(=O)n2C [propentophylline, reference compound] | not significant | 2.2% | no significant protective activity | 
COC1=C(OC)C(=O)C(CCCCCCCCCCO)=C(C)C1=O [Compound ID] |  |  |  | 110%
